Drawing on ChEMBL document CHEMBL5137118, “Zamamiphidins B and C, Manzamine-Related Alkaloids from an Amphimedon sp. Marine Sponge Collected in Okinawa” (J Nat Prod, 2022), this text covers IC50 for 2 compounds.

Bounds are passed on as bounds.

For assay [1], the system named is KB. The experiment in a line: Cytotoxicity against human KB cells assessed as inhibition of cell growth. It counts as functional, cell-based.
In assay [2] the test system is L1210. Kind of assay: Cytotoxicity against mouse L1210 cells assessed as inhibition of cell growth. It counts as functional, cell-based.
The target of assay [3] is Acetylcholinesterase (Electrophorus electricus, UniProt O42275). Kind of assay: Inhibition of electric eel AChE using acetylthiocholine iodide as substrate preincubated for 30 mins followed by substrate addition and measured after 5 mins by DTNB-reagent based Ellman's method. Background: In Ellman's method for cholinesterases, released thiocholine reacts with DTNB.
Chain of Acetylcholinesterase (O42275 whole entry): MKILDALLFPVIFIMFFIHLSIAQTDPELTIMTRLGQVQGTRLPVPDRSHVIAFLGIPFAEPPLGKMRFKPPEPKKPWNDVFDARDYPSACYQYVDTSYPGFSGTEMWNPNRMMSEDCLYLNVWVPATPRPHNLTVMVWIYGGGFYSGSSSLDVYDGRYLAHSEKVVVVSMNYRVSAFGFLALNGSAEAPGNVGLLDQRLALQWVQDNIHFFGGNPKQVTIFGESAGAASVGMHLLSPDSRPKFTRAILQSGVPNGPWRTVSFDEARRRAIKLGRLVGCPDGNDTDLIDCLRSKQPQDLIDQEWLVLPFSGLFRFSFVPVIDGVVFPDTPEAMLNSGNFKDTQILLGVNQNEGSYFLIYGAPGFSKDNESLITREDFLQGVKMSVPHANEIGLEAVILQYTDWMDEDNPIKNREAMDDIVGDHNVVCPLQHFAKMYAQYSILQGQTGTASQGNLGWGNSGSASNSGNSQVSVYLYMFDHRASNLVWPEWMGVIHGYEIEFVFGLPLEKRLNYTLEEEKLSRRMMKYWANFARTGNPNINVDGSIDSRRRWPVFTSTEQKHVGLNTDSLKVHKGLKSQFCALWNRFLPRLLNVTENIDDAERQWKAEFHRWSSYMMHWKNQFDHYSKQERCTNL

The IC50 is the point on the concentration scale where inhibition reaches its midpoint. As to `O[C@H]1CCCC[N+]23C[C@@H]4C=C5CC/C=C\CCCCN6CC[C@@H]4[C@](CC[C@H]12)(C6)[C@H]53`, the IC50 in assay [1] was above 10 µg/mL; in assay [2] it was above 10 µg/mL; in assay [3], 350 µM.
For `O[C@@H]1CCCC[N+]23C[C@@H]4C=C5CC/C=C\CCCCN6CC[C@@H]4[C@](CC[C@H]12)(C6)[C@H]53`, the half-inhibitory concentration (IC50) in assay [1] is above 10 µg/mL; in assay [2], above 10 µg/mL; in assay [3] it was 470 µM.
